# Like-named read-outs stand apart in the source and are kept apart here. Ends that are not written are not given here. * marks the point of attachment. Biotin = O=C1N[C@H]2[C@H](CS[C@H]2CCCCC(=O)*)N1
# Experiments:
# [1] = system: sera from sheep free of infection with C. abortus
# Description: In the Applicant's experience at least two different forms of microtitration plates may be used. One form uses tresyl-activated dextran, which is applied to the polystyrene plate and forms a layer between the plate and the peptide (Gregorius et al., 1995). The commercially available plates (‘Aquabind™’) are produced by M&E, Denmark and marketed in the UK through Labsystems by Life Sciences. […] The second form of plate is one modified by coating with streptavidin. Such plates are commercially available e.g. Labsystems, Pierce and Warriner. […] The preferred microtitration plate types used to bind streptavidin are those modified to provide high protein binding e.g. Dynex Immulon 2, Greiner High Bind. To each well is added streptavidin in 150 μl volumes. The plates are incubated, preferably for 2 hours at 35-37° C., then the contents ejected and the plates washed 3 times with PBS buffer, pH 7.4 (Appendix). The plates are thoroughly dried and stored at 4° C. until required. Application of the peptide mixture is performed as follows:
# The stock solutions (1 mg per ml) of the selected peptides are diluted in the same volume of carbonate-bicarbonate buffer, pH 9.6, to their optimum concentration. […] The peptide mixture solution is added in volumes of 150 μl per well. In a ‘controlled’ test, the peptide mixture is added to all wells in even numbered columns, while carbonate-bicarbonate buffer is added to all wells in odd-numbered columns in the same volume per well. In ‘screen’ tests, where control wells are not used for each sample, the peptide mixture is added to all 96 wells on the plate. The plates are incubated, preferably at 4° C. for 4 to 12 hours, then washed 4 times with PBS/Tween buffer (Appendix) and thoroughly dried, preferably for 4 hours in a fan-driven cabinet. The coated plates are placed in watertight bags with a desiccant, and the bags sealed and stored at 4° C. until required.
# Two dilutions of standard serum are used. One, employed at a dilution of 1 in 1000, is used to indicate successful performance of the test (‘standard positive’). […] In the kits, the positive and cut-off standards are provided pre-diluted to working strength in a proprietary stabilisation buffer (Dako) which contains a preservative (ProClin 300; Supelco; used at 1 in 2000), and are not diluted further before addition to the test plate.
# The test serum samples are diluted 1:100 in Serum Conjugate Diluent (Appendix). The test kits provide a Diluter plate, which has very low protein binding properties. By adding 15 μl of serum to 135 μl of Serum Conjugate Diluent on the Diluter plate, an initial 1 in 10 dilution is achieved. Transfer of 15 μl from the Diluter plate to 135 μl of Serum Conjugate Diluent dispensed into each well in the test plate enables a further dilution to 1 in 100 (from the original sample) on the test plate. […] Dilution of sera can also be performed, if preferred, in bijoux or tubes before their addition in 150 μl volumes to the Test plate.
# Test and standard sera are incubated on the Test plate for 15 min at room temperature (˜20° C.), then 30 min at 37° C. Plate contents are then ejected and the plate washed 4 times with PBS/Tween (Appendix) and dried.
# A probe to detect the presence of immunoglobulin, to which is conjugated an enzyme (the ‘conjugate’), is then added. Preferably, the probe constitutes Protein G (recombinant form, in which the moiety that binds to albumin has been eliminated; available from Sigma and Calbiochem) conjugated with horse radish peroxidase, but many forms of conjugate are available. These include, as probes, Protein A; and monoclonal or polyclonal antibodies against the immunoglobulins of the species providing the test sample.
# antibodies to C. abortus = experiment: ELISA, serological reactivity of biotinylated peptides against serum dilutions (Tables 1 and 2); format: binding, sheep
# Description: (§1) Application of the peptide mixture is performed as follows:
# (§2) Two dilutions of standard serum are used.
# The data illustrate that the length of compound has a major impact on serological reactivity.
# Thus, substitutions within the core epitopes described in this invention are possible without too much loss in compound serological reactivity.
# [2] = system: sera from ewes known not to have been infected with C. abortus; SPF lamb antisera; experiment: ELISA, specificity of peptides with sera from uninfected ewes and SPF lamb antisera (first Table 4); format: binding, sheep; design: reactivity with serum (quantity not given): unit not given here
# Description: as §1, §2
# Specificities of Peptides 2-9,2-10, 1B, 1A/1A and 4B/4B as tested with sera from ewes known not to have been infected with C. abortus, and which had shown positive reactivity in previous tests with various forms of VS 1 and VS2.
# [3] = PS (Positive Control Serum) 1/1000
# [4] = PS (Positive Control Serum) 1/15000
# [5] = serum of Animal No. 19, sheep free of infection with C. abortus
# [6] = SPF lamb antiserum 2397/2 C.ab, vaccinated with S26/3 (C. abortus)
# [7] = SPF lamb antiserum 2401/2 C.ab, vaccinated with S26/3 (C. abortus)
# [8] = SPF lamb antiserum 2405/2 C.ab, vaccinated with 28/28 (C. abortus)
# [9] = SPF lamb antiserum 2406/2 C.ab, vaccinated with 28/68 (C. abortus)
# [10] = SPF lamb antiserum 2407/2 W73, vaccinated with W73 (C. pecorum)
# [11] = SPF lamb antiserum F6/2 Cap.ab, vaccinated with Cap. abortion 15 (C. abortus)
# [12] = SPF lamb serum 2397/1, pre-vaccination
Substance,"Net OD [Gross OD - No compound OD] [1, 3]","Net OD [Gross OD - No compound OD] [1, 4]","Net OD [Gross OD - No compound OD] [1, 5]","reactivity with serum (quantity not given) [2, 6]","reactivity with serum (quantity not given) [2, 7]","reactivity with serum (quantity not given) [2, 8]","reactivity with serum (quantity not given) [2, 9]",reactivity with serum (quantity not given) ([2]; serum of animal no. 1354R),reactivity with serum (quantity not given) ([2]; serum of animal no. 2948),"reactivity with serum (quantity not given) [2, 10]","reactivity with serum (quantity not given) [2, 11]","reactivity with serum (quantity not given) [2, 12]",reactivity with serum (quantity not given) ([2]; serum of animal no. A2213),reactivity with serum (quantity not given) ([2]; serum of animal no. B2123),reactivity with serum (quantity not given) ([2]; serum of animal no. Z2611),other results
Biotin-KKKKKKKGVKGSSIAADQLPN [Compound 2-7],1.038,0.059,0.119,,,,,,,,,,,,,"Net OD [Gross OD - No compound OD] ([1]; serum of Animal No. 11, sheep free of infection with C. abortus): 0.607; Net OD [Gross OD - No compound OD] ([1]; serum of Animal No. 13, sheep free of infection with C. abortus): 0.198; Net OD [Gross OD - No compound OD] ([1]; serum of Animal No. 29, sheep free of infection with C. abortus): 0.144"
Biotin-KKKKKKKKKKKGSSIAAD [Compound 2-3],,,,,,,,,,,,,,,,Net Optical Density (antibodies to C. abortus; serum dilution 1/100): 2.075; Net Optical Density (antibodies to C. abortus; serum dilution 1/200): 1.133; Net Optical Density (antibodies to C. abortus; serum dilution 1/400): 0.540; Net Optical Density (antibodies to C. abortus; serum dilution 1/800): 0.214; Net Optical Density (antibodies to C. abortus; serum dilution 1/1600): 0.095; Net Optical Density (antibodies to C. abortus; serum dilution 1/3200): 0.031; Net Optical Density (antibodies to C. abortus; serum dilution 1/6400): 0.007
Biotin-KTITGKKKKGTAAANYKTPTD [Compound 1-6],3.352,0.354,1.316,,,,,,,,,,,,,"Net OD [Gross OD - No compound OD] ([1]; serum of Animal No. 28, sheep free of infection with C. abortus): 0.114; Net OD [Gross OD - No compound OD] ([1]; serum of Animal No. 31, sheep free of infection with C. abortus): 0.636; Net OD [Gross OD - No compound OD] ([1]; serum of Animal No. 36, sheep free of infection with C. abortus): 0.500; Net OD [Gross OD - No compound OD] ([1]; serum of Animal No. 37, sheep free of infection with C. abortus): 0.344"
GVKGSSIAADQGVKGSSIAADQ (GVKGSSIAADQGVKGSSIAADQ) [Compound 2-10],,,,3.1,1.5,2.6,1.6,0.9,0.5,,,,,,,reactivity with serum (quantity not given) ([2]; serum of animal no. 1715T): 0.3; reactivity with serum (quantity not given) ([2]; serum of animal no. 3174): 1.3; reactivity with serum (quantity not given) ([2]; serum of animal no. A2332): 1.0; reactivity with serum (quantity not given) ([2]; serum of animal no. Z2600): 1.1; reactivity with serum (quantity not given) ([2]; serum of animal no. Z2708): 0.55
KTITGMTGTAAANYKTITGM (KTITGMTGTAAANYKTITGM) [Compound 1B],,,,OVER,OVER,OVER,OVER,2.3,,1.3,0.9,OVER,OVER,1.55,0.6,reactivity with serum (quantity not given) ([2]; serum of animal no. 3178): 0.7; reactivity with serum (quantity not given) ([2]; serum of animal no. Z2680): 0.5
TGTAAANYKTTGTAAANYKT (TGTAAANYKTTGTAAANYKT) [Compound 1A/1A],,,,OVER,OVER,OVER,OVER,2.3,0.6,1.8,0.9,OVER,OVER,2.0,1.0,"specificity compared with 1B (in words) [2]: less specific; reactivity with serum (quantity not given) ([2]; SPF lamb antiserum F4/2 84-796, vaccinated with 84-796 (C. pecorum)): 0.4; reactivity with serum (quantity not given) ([2]; SPF lamb antiserum F7/2 P787, vaccinated with P787 (C. pecorum)): 0.5; reactivity with serum (quantity not given) ([2]; serum of animal no. A2261): 0.7; reactivity with serum (quantity not given) ([2]; serum of animal no. Y10-8-14): 1.2; reactivity with serum (quantity not given) ([2]; serum of animal no. Y10-8-37): 0.8; reactivity with serum (quantity not given) ([2]; serum of animal no. Z2646): 0.4; reactivity with serum (quantity not given) ([2]; serum of animal no. Z2656): 0.66"

# From US20030186887A1, “Compounds for detection of infection by chlamydophila abortus” (priority 2000, published 2003)
